Values belong to the compound of their own block, whether it stands above or below them.
Tests used:
[1] = tested on: NK cells; assay: Immune cell toxicity assays, NK cells; assay type: cell-based; conditions: 72 hours of high dose exposure; regardless of IL-2 or co-culture with TILs
Method: Immune Cell Toxicity Assays. […] Following treatment, samples were stained with anti-CD45, anti-CD3, anti-CD4, anti-CD8, and anti-CD56 antibodies (Table 1), as well as Zombie Green live/dead (Biolegend 423111) and analyzed by flow cytometry as described above. Data were analyzed using FlowJo software version 10.5.3. As an orthogonal measure of viability, CellTiter-Glo was performed on primary T-cells and NK cells.
CellTiter-Glo luminescent cell viability assay. Cell viability was assessed using the CellTiter-Glo Luminescent Cell Viability assay (Promega, G7571) according to manufacturer's instructions. […] All conditions were tested in triplicate and plates were read on a Tecan Infinite Mplex Microplate Reader.

[2] = tested on: MPM tumor cell lines; assay: 3D vascular model of NK cell migration; assay type: cell-based, human
Method: 3D vascular model. To generate the tumor-vascular model, H226 spheroids were mixed with collagen rat tail hydrogel (2.5 mg/ml) and injected into the center gel region of the 3D microfluidic chamber (10-15 μL per each microfluidic chamber). After incubation for 30 minutes at 37° C. in sterile humidity chambers, the side wall of one flanked channel (media channel) was coated with a 150 μg/ml collagen solution in PBS to allow for better adhesion of eCs to the channel. After 15 mins, the channel was washed once with media. To create the 3D vessel, 25 μL cell suspension of 3×10^6 cells/ml human umbilical vein endothelial cells (HUVECs; C2519AS, Lonza) were injected in the media channel coated with collagen. The channel was rotated twice to create a confluent hollow-lumen 3D vessel. To allow the cells to attach to the media-gel interface and form a monolayer, the chip was incubated with cells face down for 15 mins. Next, 50 μL cell suspension was reinjected, and the chip was flipped to cover the upper part of the 3D vascular channel. After 90 mins of incubation in the humidity chamber at 37° C., cell culture media was gently added to both channels and further incubated to form a confluent monolayer. After vessel formation, NK cells (labelled with cell tracker) were added to the 3D vessel at 2:1 E:T ratio. […] NK cell migration+/−vessel was quantified at 24 hours. Image capture and analysis was performed using a fluorescence confocal microscope and processing software. The 3D vascular channels were rinsed in PBS and fixed with 4% PFA for 15 min at room temperature. Cell membranes were permeabilized with 0.1% Triton X-100 for 5 min at room temperature and washed twice with PBS. HUVEC cells were stained for F-actin with green phalloidin (Thermo Fisher Scientific A12379) and Hoechst 33342. Images were captured on a Nikon Eclipse 80i fluorescence microscope equipped with Z-stack (Prior) and CoolSNAP CCD camera (Roper Scientific).

[3] = tested on: NK cells; conditions: systemic administration, murine models; related manuscript; cited from earlier work
[4] = tested on: STING; assay: STING immunoblotting in NK cells and TILs; assay type: cell-based, human; conditions: NK cells
Method: Immunoblotting. […] Imaging of blots and was performed using the LI-COR Odyssey system.

[5] = target: T1, CXCR3 (Homo sapiens, UniProt P49682); assay: CXCR3 surface expression after hCXCL10, flow cytometry; assay type: cell-based; conditions: NK cells, NK92, Jurkat; 200 ng hCXCL10
T1 construct: endogenous in cells; host or cells: primary NK cells (cNK, CIML); NK92 and JURKAT CXCR3+ lines; also CAR and CAR-CXCR3 transduced NK cells
T1 sequence (P49682 1-368): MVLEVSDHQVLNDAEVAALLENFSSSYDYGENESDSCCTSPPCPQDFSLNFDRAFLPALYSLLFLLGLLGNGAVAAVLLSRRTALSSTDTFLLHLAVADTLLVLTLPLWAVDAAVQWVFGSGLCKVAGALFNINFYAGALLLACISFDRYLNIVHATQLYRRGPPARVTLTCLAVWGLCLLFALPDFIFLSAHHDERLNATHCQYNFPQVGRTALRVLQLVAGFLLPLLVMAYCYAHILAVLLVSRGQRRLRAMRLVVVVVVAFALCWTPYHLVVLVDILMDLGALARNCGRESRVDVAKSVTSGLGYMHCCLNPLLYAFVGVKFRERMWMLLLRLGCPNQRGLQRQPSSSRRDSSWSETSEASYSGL
Method: CXCR3 is degraded from the cell surface of primary NK cells and the NK cell lines NK92 and […] both expressing CXCR3, after stimulation with 200 ng of recombinant human C—X—C Motif Chemokine Ligand 10 (hCXCL10) at different time points, as illustrated in FIG. 17A-FIG. 18B, measured by flow cytometry and expressed as median fluorescent intensity (MFI) of the CXCR3 receptor. CXCR3 is also degraded from CAR and CAR-CXCR expressing cNK cells. FIG. 18C-FIG. 18D illustrate CXCR3 surface expression as measured by flow cytometry of primary NK cells (cNK) expressing CAR, CAR-CXCR3 or control, stimulated with 200 ng of recombinant human CXCL10 stimulation at different time points (0 and 60 minutes). CXCR3 is degraded from cNK NT, CAR-cNK, and CAR-NK CXCR+ cell surfaces after 1 hour of hCXCL10 treatment (FIG. 19C). CXCR3 is also degraded from cytokine-induced memory-like (CIML) NK NT, CIML CAR-NK, CIML CAR-NK CXCR+ after 1 hour of hCXCL10 treatment (FIG. 19D).

Compound: Nc1ncnc2c1ncn2[C@@H]1O[C@@H]2CO[P@@](=O)(S)O[C@@H]3[C@H](O)[C@@H](CO[P@@](=O)(S)O[C@H]2[C@H]1F)O[C@H]3n1cc(F)c2c(=O)nc[nH]c21 [TAK-676]
cytotoxicity in human NK cells [1]: no significant cytotoxicity | overcoming a human vascular barrier ([2]; ex vivo model): especially potent | NK cell migration ([2]; presence and absence of the vascular barrier): enhanced NK cell migration | trafficking and activation of NK cells [3]: enhanced

Compound: CCN(CC)CCCC(C)Nc1ccnc2cc(Cl)ccc12 (stereo not drawn) [chloroquine]
effect on ADU-S100 induced STING degradation [4]: prevented

CXCR3 cell surface expression [5]: lost from the cell surface
Compound: hCXCL10: recombinant human C—X—C Motif Chemokine Ligand 10

— patent US20260183396A1, “CXCR3 OVEREXPRESSION IN CAR-NK CELLS PRIMES MIGRATION/HOMING INTO THE TUMOR MICROENVIRONMENT” (DANA-FARBER CANCER INSTITUTE, INC., priority 2022, published 2026)
